For 43 molecules, EC50 results are on record in ChEMBL document CHEMBL5728383, “Isoquinoline ether compounds as mGluR4 allosteric potentiators, compositions, and methods of treating neurological dysfunction” (2021).

As a reminder, the EC50 is the concentration giving half of the maximal effect.

The target in this test is Metabotropic glutamate receptor 4 (Homo sapiens, UniProt Q14833). In words: Receptor Activity Assay: The disclosed compounds and compositions can be evaluated for their ability to act as a potentiator of metabotropic glutamate receptor activity, in particular mGluR4 activity, by any suitable known methodology known in the art. For example, Chinese Hamster Ovary (CHO) cells transfected with human mGluR4 or HEK cells co-transfected with rat mGuR4 and the G-protein regulated Inwardly Rectifying Potassium channel (GIRK) were plated in clear bottom assay plates for assay in a Hamamatsu FDSS Fluorometric Plate Reader. The cells were loaded with either a Ca2+-sensitive fluorescent dye or the thallium responsive dye and the plates were washed and placed into a suitable kinetic plate reader. For human mGuR4 assays, a fluorescence baseline was established for 3-5 seconds, the disclosed compounds were then added to the cells, and the response in cells was measured. Approximately two and a half minutes later, a concentration of mGuR4 orthosteric agonist (e.g. glutamate or L-AP4) eliciting approximately 20% (EC20) of the maximal agonist response was added to the cells, and the response was measured. Two minutes later, a concentration of mGluR4 agonist (e.g. glutamate or L-AP4) eliciting 80% (EC80) of the maximal agonist response was added to the cells, and the response was measured. For rat mGuR4/GIRK experiments, a baseline was established for approximately five seconds, disclosed compounds were added, and either an EC20 or EC80 concentration of agonist was added approximately two and one half minutes later.
Metabotropic glutamate receptor 4, sequence (Q14833 whole entry): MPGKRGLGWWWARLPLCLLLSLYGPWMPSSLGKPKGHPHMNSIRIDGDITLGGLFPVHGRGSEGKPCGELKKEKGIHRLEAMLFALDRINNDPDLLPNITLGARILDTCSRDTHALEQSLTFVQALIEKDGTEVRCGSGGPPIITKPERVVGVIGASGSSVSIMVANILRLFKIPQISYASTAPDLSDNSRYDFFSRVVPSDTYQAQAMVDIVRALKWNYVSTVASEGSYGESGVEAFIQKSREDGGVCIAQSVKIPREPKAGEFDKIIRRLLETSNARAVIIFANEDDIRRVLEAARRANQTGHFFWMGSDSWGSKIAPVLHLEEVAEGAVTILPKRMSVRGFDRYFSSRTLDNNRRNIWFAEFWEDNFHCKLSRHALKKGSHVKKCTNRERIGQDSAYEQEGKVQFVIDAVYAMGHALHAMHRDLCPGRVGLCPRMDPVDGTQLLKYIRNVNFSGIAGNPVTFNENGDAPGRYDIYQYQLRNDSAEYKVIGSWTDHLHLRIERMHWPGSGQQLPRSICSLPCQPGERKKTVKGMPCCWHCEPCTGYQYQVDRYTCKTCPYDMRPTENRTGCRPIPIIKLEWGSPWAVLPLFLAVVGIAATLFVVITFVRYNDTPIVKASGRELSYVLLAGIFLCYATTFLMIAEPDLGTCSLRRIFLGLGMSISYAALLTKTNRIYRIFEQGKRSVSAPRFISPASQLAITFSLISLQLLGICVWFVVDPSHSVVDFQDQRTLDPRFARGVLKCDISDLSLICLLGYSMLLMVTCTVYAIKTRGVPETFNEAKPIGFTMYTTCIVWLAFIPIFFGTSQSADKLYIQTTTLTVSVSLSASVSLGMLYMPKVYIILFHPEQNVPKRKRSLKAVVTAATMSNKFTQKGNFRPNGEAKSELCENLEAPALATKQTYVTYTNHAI
On to `CO[C@H](C)COc1nccc2cc(Nc3n[nH]c4nccnc34)ccc12`, for which the 50% effective concentration (EC50) turned out to be 17.5 nM.

With `CCOCCOc1nccc2cc(Nc3n[nH]c4nccnc34)ccc12`, the EC50 was determined as 21.5 nM.

`c1cc2cc(Nc3n[nH]c4nccnc34)ccc2c(O[C@H]2CCOC2)n1`: the concentration for a half-maximal effect (EC50) was 22.1 nM.

On to `c1cnc2c(Nc3ccc4c(OCC5COCCO5)nccc4c3)n[nH]c2c1` (stereo not drawn), for which the concentration for a half-maximal effect (EC50) came to 12.6 nM.

Consider `CCOCCOc1nccc2cc(Nc3n[nH]c4ncccc34)ccc12`, for which the concentration for a half-maximal effect (EC50) is 48.4 nM.

Consider `Fc1cnc2c(Nc3ccc4c(O[C@H]5CCOC5)nccc4c3)n[nH]c2c1`, for which the EC50 was found to be 82.3 nM.

Consider `COCCOc1nccc2cc(Nc3n[nH]c4ncccc34)ccc12`, for which the EC50 was determined as 51.5 nM.

Take `CCOCCOc1nccc2cc(Nc3n[nH]c4cccnc34)ccc12`: the EC50 was found to be 22.3 nM.

In the case of `COCCOc1nccc2cc(Nc3n[nH]c4cccnc34)ccc12`, the EC50 is 19.9 nM.

In the case of `c1cnc2[nH]nc(Nc3ccc4c(O[C@@H]5CCOC5)nccc4c3)c2c1`, the concentration for a half-maximal effect (EC50) amounted to 64 nM.

Take `c1cnc2c(Nc3ccc4c(O[C@@H]5CCOC5)nccc4c3)n[nH]c2c1`: the EC50 is 36.1 nM.

`COCCOc1nccc2cc(Nc3n[nH]c4cc(F)cnc34)ccc12`: the EC50 was determined as 69 nM.

For the molecule `c1cnc2c(Nc3ccc4c(O[C@@H]5CCCOC5)nccc4c3)n[nH]c2c1`, the EC50 was 31.9 nM.

Consider `c1cnc2c(Nc3ccc4c(OCC5CCCOC5)nccc4c3)n[nH]c2c1` (stereo not drawn), for which the EC50 was found to be 15.7 nM.

With `C[C@H]1OCC[C@H]1Oc1nccc2cc(Nc3n[nH]c4cccnc34)ccc12`, the concentration for a half-maximal effect (EC50) is 55.9 nM.

Turning to `c1cnc2c(Nc3ccc4c(O[C@H]5CCCOC5)nccc4c3)n[nH]c2c1`, the 50% effective concentration (EC50) was found to be 27.3 nM.

Turning to `Fc1cnc2c(Nc3ccc4c(OCC5COCCO5)nccc4c3)n[nH]c2c1` (stereo not drawn), the concentration giving a half-maximal response (EC50) stood at 35.9 nM.

For the molecule `c1cc2cc(Nc3n[nH]c4nccnc34)ccc2c(OCC2CCOCC2)n1`, the 50% effective concentration (EC50) was determined as 16.1 nM.

For the molecule `C[C@H]1C[C@H](Oc2nccc3cc(Nc4n[nH]c5cccnc45)ccc23)CO1`, the EC50 worked out at 26.9 nM.

For `c1cnc2c(Nc3ccc4c(O[C@H]5CCOC5)nccc4c3)n[nH]c2c1`, the EC50 is 37.6 nM.

Regarding `C[C@@H]1C[C@H](Oc2nccc3cc(Nc4n[nH]c5cccnc45)ccc23)CO1`, the EC50 was 48.3 nM.

On to `c1cnc2[nH]nc(Nc3ccc4c(OCC5CCOCC5)nccc4c3)c2c1`, for which the concentration for a half-maximal effect (EC50) is 45.9 nM.

For `CO[C@H](C)COc1nccc2cc(Nc3n[nH]c4cccnc34)ccc12`, the EC50 amounted to 14.5 nM.

On to `c1cnc2[nH]nc(Nc3ccc4c(OCCN5CCOCC5)nccc4c3)c2c1`, for which the EC50 was 148 nM.

On to `c1cc2cc(Nc3n[nH]c4nccnc34)ccc2c(O[C@@H]2CCOC2)n1`, for which the EC50 came to 43.6 nM.

In the case of `C[C@H]1C[C@H](Oc2nccc3cc(Nc4n[nH]c5ncccc45)ccc23)CO1`, the concentration giving a half-maximal response (EC50) came to 70.7 nM.

Take `C[C@H]1OCC[C@H]1Oc1nccc2cc(Nc3n[nH]c4ncccc34)ccc12`: the 50% effective concentration (EC50) came to 154 nM.

For `COCCOc1nccc2cc(Nc3n[nH]c4nccnc34)ccc12`, the EC50 came to 35.2 nM.

In the case of `c1cnc2c(Nc3ccc4c(OCC5CCOC5)nccc4c3)n[nH]c2c1` (stereo not drawn), the EC50 amounted to 12 nM.

Take `C[C@@H]1C[C@H](Oc2nccc3cc(Nc4n[nH]c5ncccc45)ccc23)CO1`: the 50% effective concentration (EC50) amounted to 152 nM.

In the case of `COCCOc1nccc2cc(Nc3n[nH]c4ncc(F)cc34)ccc12`, the concentration giving a half-maximal response (EC50) amounted to 82.3 nM.

For `Fc1cnc2[nH]nc(Nc3ccc4c(OC5CCOCC5)nccc4c3)c2c1`, the 50% effective concentration (EC50) was determined as 118 nM.

For `c1cnc2[nH]nc(Nc3ccc4c(OCC5CCOC5)nccc4c3)c2c1` (stereo not drawn), the concentration giving a half-maximal response (EC50) came out at 54.3 nM.

Consider `c1cnc2[nH]nc(Nc3ccc4c(O[C@H]5CCOC5)nccc4c3)c2c1`, for which the EC50 turned out to be 44.2 nM.

`c1cc2cc(Nc3n[nH]c4nccnc34)ccc2c(OCC2CCOC2)n1` (stereo not drawn): the half-maximal effective concentration (EC50) stood at 10.4 nM.

For `c1cnc2c(Nc3ccc4c(OC5CCOCC5)nccc4c3)n[nH]c2c1`, the concentration for a half-maximal effect (EC50) worked out at 12.6 nM.

With `c1cnc2[nH]nc(Nc3ccc4c(OCC5COCCO5)nccc4c3)c2c1` (stereo not drawn), the EC50 stood at 121 nM.

As to `c1cnc2c(Nc3ccc4c(OCC5CCOCC5)nccc4c3)n[nH]c2c1`, the EC50 turned out to be 11.6 nM.

Turning to `CO[C@H](C)COc1nccc2cc(Nc3n[nH]c4ncccc34)ccc12`, the EC50 stood at 77.1 nM.

For `c1cnc2[nH]nc(Nc3ccc4c(OCC5CCCCO5)nccc4c3)c2c1` (stereo not drawn), the EC50 came to 75.2 nM.

Regarding `c1cc2cc(Nc3n[nH]c4nccnc34)ccc2c(OCC2COCCO2)n1` (stereo not drawn), the EC50 came to 28.5 nM.

As to `COCCOc1nccc2cc(Nc3n[nH]c4ccccc34)ccc12`, the EC50 turned out to be 76.9 nM.

Turning to `c1cnc2c(Nc3ccc4c(OCCN5CCOCC5)nccc4c3)n[nH]c2c1`, the EC50 stood at 41.2 nM.
